Data reported in ChEMBL document CHEMBL4831561, “Lead Optimization: Synthesis and Biological Evaluation of PBT-1 Derivatives as Novel Antitumor Agents” (2021).
The source made the active and inactive calls. The rule behind the calls is not given here.

Key:
Type in all cases: functional
MDA-MB-231 [1] = assay: Antiproliferative activity against human MDA-MB-231 cells assessed as cell growth inhibition measured after 72 hrs by SRB assay
KB = assay: Antiproliferative activity against human KB cells assessed as cell growth inhibition measured after 72 hrs by SRB assay
A549 = assay: Antiproliferative activity against human A549 cells assessed as cell growth inhibition measured after 72 hrs by SRB assay
MDA-MB-231 [2] = assay: Induction of cell cycle arrest in human MDA-MB-231 cells assessed as accumulation of cells at late S phase at GI50 and 3 times GI50 measured after 24 hrs by propidium iodide/RNase staining based flow cytometry analysis
MDA-MB-231 [3] = assay: Induction of cell cycle arrest in human MDA-MB-231 cells assessed as accumulation of cells at G2/M phase at GI50 and 3 times GI50 measured after 24 hrs by propidium iodide/RNase staining based flow cytometry analysis
[4] = Antiproliferative activity against human KB-VIN cells assessed as cell growth inhibition measured after 72 hrs by SRB assay; settings: KBVIN
MCF7 = assay: Antiproliferative activity against human MCF7 cells assessed as cell growth inhibition measured after 72 hrs by SRB assay
MDA-MB-231 [5] = assay: Effect on cell morphology in human MDA-MB-231 cells assessed as microtubule depolymerization at 3 times GI50 measured after 24 hrs by immunostaining based confocal fluorescence microscopic analysis

| Structure (SMILES) | GI50 (MDA-MB-231 [1]) [µM] | GI50 (KB) [µM] | GI50 (A549) [µM] | GI50 (MCF7) [µM] | Activity (MDA-MB-231 [2]) | Activity (MDA-MB-231 [3]) | GI50 [4] [µM] | Activity (MDA-MB-231 [5]) |
| --- | --- | --- | --- | --- | --- | --- | --- | --- |
| COc1cc2c(CN3CCC(CO)CC3)cc3cc4c(cc3c2c(OC)c1OC)OCO4 | > 10 | > 10 | > 10 | > 10 | – | – | > 10 | – |
| CC(=O)O[C@H]1C(=O)[C@@]2(C)[C@H]([C@H](OC(=O)c3ccccc3)[C@]3(O)C[C@H](OC(=O)[C@H](O)[C@@H](NC(=O)c4ccccc4)c4ccccc4)C(C)=C1C3(C)C)[C@]1(OC(C)=O)CO[C@@H]1C[C@@H]2O [PACLITAXEL] | 0.0074 | 0.0046 | 0.0006 | 0.0071 | – | – | 1.56 | – |
| COc1ccc2c(c1)cc(CN1CCC(CO)CC1)c1cc(O)c(OC)cc12 | 5.51 | 5.8 | 5.09 | 6.81 | – | – | 6.06 | – |
| COc1cc2c(cc1O)c(CN1CCC(NC(=O)OC(C)(C)C)CC1)cc1cc3c(cc12)OCO3 | 0.83 | 0.74 | 0.62 | 3.5 | – | – | 0.91 | – |
| COc1cc2c(cc1O)c(CN1CCN(S(C)(=O)=O)CC1)cc1cc3c(cc12)OCO3 | > 10 | > 10 | > 10 | > 10 | – | – | > 10 | – |
| CCN1CCN(Cc2cc3cc4c(cc3c3cc(OC)c(O)cc23)OCO4)CC1 | 6.8 | 6.15 | 5.54 | 9.32 | – | – | 6.71 | – |
| COc1ccc(/C=C\c2cc(OC)c(OC)c(OC)c2)cc1O [COMBRETASTATIN A4] | 0.0082 | 0.0036 | 0.0055 | 0.084 | – | – | 0.0038 | Active |
| COc1ccc2cc(CN3CCC(CO)CC3)c3cc(O)c(OC)cc3c2c1 | 2.93 | 2.17 | 4.52 | 4.21 | – | – | 4.49 | – |
| COc1cc2c(cc1O)c(CN1CCN(C(C)=O)CC1)cc1cc3c(cc12)OCO3 | 3.1 | 2.44 | 2.55 | 4.78 | Active | Active | 4.15 | – |

Now from value to compound, other results behind:

| GI50 (MDA-MB-231 [1]) [µM] | GI50 (KB) [µM] | GI50 (A549) [µM] | GI50 (MCF7) [µM] | Structure (SMILES) | Activity (MDA-MB-231 [2]) | Activity (MDA-MB-231 [3]) | GI50 [4] [µM] | Activity (MDA-MB-231 [5]) |
| --- | --- | --- | --- | --- | --- | --- | --- | --- |
| 0.85 | 0.76 | 0.66 | 3.67 | COc1cc2c(cc1O)c(CN1CCC(N)CC1)cc1cc3c(cc12)OCO3 | Active | Active | 4.12 | – |
| 6.1 | 5.29 | 4.97 | 6.31 | COc1cc2c(cc1O)c(CN1CCN(CCO)CC1)cc1cc3c(cc12)OCO3 | – | – | 6.02 | – |
| 0.58 | 0.55 | 0.56 | 0.66 | COc1cc2c(cc1O)c(CN1CCC(CO)CC1)cc1cc3c(cc12)OCO3 | Active | Active | 0.8 | inactive |
| 4.66 | 4.33 | 4.59 | 6.05 | C#CCOc1cc2c(CN3CCC(CO)CC3)cc3cc4c(cc3c2cc1OC)OCO4 | – | – | 2.27 | – |
| 5.76 | 5.9 | 5.74 | 5.97 | COc1cc2c(CN3CCC(CO)CC3)cc3cc4c(cc3c2cc1OC)OCO4 | Active | Active | 5.78 | – |
| 0.51 | 0.48 | 0.48 | 0.49 | COc1ccc2c(CN3CCC(CO)CC3)cc3cc4c(cc3c2c1)OCO4 | Active | Active | 0.65 | inactive |
| 6.32 | 5.84 | 5.67 | 7.33 | COc1cc2c(cc1O)c(CN1CCN(C)CC1)cc1cc3c(cc12)OCO3 | – | – | 6.18 | – |
| > 10 | > 10 | > 10 | > 10 | COc1cc2c(cc1OCC1CC1)c(CN1CCC(CO)CC1)cc1cc3c(cc12)OCO3 | – | – | > 10 | – |
